# Source: a melting point compilation (Tetko et al.; mined from patent text by program, amines drawn as free bases though some values may be those of a salt)
row,SMILES,melting point
1,COc1ccc2[nH]c(SCc3ncnc(N4CCOCC4)c3C)nc2c1,129 to 131 °C
2,COc1ccc2cc([C@H](C)C(=O)OCC(C)(O[N+](=O)[O-])O[N+](=O)[O-])ccc2c1,67 to 68 °C
3,COc1nc(C(=O)O)ccc1CN1CC1C#N (stereo unspecified),96 to 97 °C
4,CCc1cc2c(Sc3ccccn3)ncnc2s1,76.5 to 79 °C
5,Cc1ccccc1C(=O)Nc1cccc(OCc2ccccc2)c1,114 to 115 °C
6,COCc1c(C(=O)O)ncc2[nH]c3cccc(CN4CCOCC4)c3c12,253 to 255 °C
7,CCOc1ccc(C(C)=O)cc1S(N)(=O)=O,148 to 151 °C
8,CC1(C)OC[C@H]([C@@H]2CNC(=O)C2)O1,84 to 86 °C
9,CCOC(=O)N(Cc1ccccc1)Cn1cc(Cl)cnc1=O,143 °C
10,CCCCn1c(=O)n(CC=C(C)C)c(=O)c2c1ncn2S(=O)(=O)c1ccc(OC)c(OC)c1,92 to 95 °C
11,CC1C(=O)N(c2ccccc2)N=C1N (stereo unspecified),147 °C
12,COc1cccc(F)c1COC1(C(F)(F)F)CN(C)C(=O)Nc2ccc(Cl)cc21 (stereo unspecified),172 to 174 °C
13,CCNC(=O)c1cc(NC(=O)c2ccccc2)ccc1[Si](C)(C)C,185 to 187 °C
14,COC(=O)C1=Cc2cc(-c3ccc(OCCOC(C)C)cc3)ccc2NCC1,86 to 88 °C
15,Fc1cncc(F)c1C1=NC(c2ccc(I)cc2)CO1 (stereo unspecified),84 to 86 °C
16,CC1CCC2C3CC(=O)C4=CC(=O)CCC4(C)C3CCC12C (stereo unspecified),94 to 95 °C
17,CCCCc1nc2c(n1Cc1ccc(-c3ccccc3S(N)(=O)=O)cc1)C(=NO)CCS2,> 200 °C
18,NC1=NC2(CN(C(=O)c3cccs3)C2)Nc2cccc(F)c21,214 to 215 °C
19,Nc1ncc(Sc2ncccc2O)s1,128 to 130 °C
20,COCCn1nc(-c2sc(C(=O)NCc3ccccn3)nc2-c2ccccc2)ccc1=O,168 to 170 °C
21,CCOC(=O)Cc1nn(Cc2ccc(Br)c(Cl)c2)c(=O)c2ccccc12,142 to 145 °C
22,COc1ccc(-c2nc(C)c(-c3cccnc3)[nH]2)cc1OC,246 to 248 °C
23,O=C(O)CN1C(=O)c2cccc3c(Sc4ccccc4)ccc(c23)C1=O,250 to 253 °C
24,CC(C)CC(=O)CNC(=O)c1ccc(Cl)cc1,127 to 129 °C
25,O=C(O)CCC1(CCC(=O)O)CC(=O)c2ccc(OCCCOc3ccccc3)cc2O1,132 to 133 °C
26,CCCCCCNC(=O)Oc1ccc2c(c1)CCCN2C,50 °C

# Further lines, results first:
row,melting point,SMILES
1,214 to 215 °C,CN(C)S(=O)(=O)c1cc(C(=O)O)cc(N2CCCC2)c1Oc1ccccc1
2,96 to 98 °C,O=C1OC(=O)c2cc(OCCCOc3ccccc3)ccc21
3,105 to 108 °C,Cn1nc(C(F)(F)F)c(CS(=O)(=O)C2=NOC(C)(C)C2)c1C#N
4,249 to 250 °C,CC(C)(C)OC(=O)N1C[C@@H]2OCc3c(-c4cccc(F)c4)nnn3[C@H]2C1
5,362 °C,CC(=O)N1CCc2sc(/C=C3/C(=O)N4C(C(=O)O)=CS[C@H]34)cc2C1
6,95 to 96 °C,COc1ccc2c(c1)/C(=C/C#N)CC2
7,108 to 112 °C,O=C(O)Cc1csc(Nc2ccc(Cl)c(C(F)(F)F)c2)n1
8,176 to 177 °C,O=C1NC(=O)C(CC#Cc2ccc(Cl)cc2)(S(=O)(=O)c2ccc(F)cc2)S1 (stereo unspecified)
9,79 to 82 °C,CCC(CC)Oc1cc(C)nc(Nc2c(C)cc(C)cc2C)c1NC(=O)CCl
10,> 295 °C,CCOC(=O)C(=O)c1c[nH]c2c1ccc1c3ccccc3[nH]c12
11,141 to 143 °C,CCNC(=O)N1CCN(C2CCCc3ccc(OC)cc32)CC1 (stereo unspecified)
12,123 to 125 °C,CC1c2cccc3c2N(CC3)c2ccccc2N1C(=O)CBr (stereo unspecified)
13,97 to 98 °C,O=C(O)CCCCCCCNS(=O)(=O)c1ccc(F)cc1
14,278 °C,Nc1noc(-c2nc(Cl)c(N)nc2N)n1
15,68 to 79 °C,COc1ccc(Nc2nc(Nc3cc4c(cc3OC)CCN(CC(=O)N(C)C)CC4)ncc2Cl)c(S(=O)(=O)C(C)C)c1
16,85 to 86 °C,COc1ccc2c(c1)C(=NOCCN1CCCC1)c1c-2cnc2ccccc12
17,156 to 158 °C,CC1(C)NC(=O)c2ccc(OCCBr)cc2O1
18,162 to 163 °C,c1nc(SC2CCCCC2)c2cc[nH]c2n1
19,242 °C,COc1cc(N)c(Cl)cc1C(=O)Cl
20,167 to 170 °C,CCCCn1c(=O)cc(NN)n(Cc2ccc(OC)cc2)c1=O
21,36 to 37.5 °C,C=CCOC(=O)C(C#N)=C(SC)SC
22,229 to 230 °C,O=c1cc(O)c2ccc(F)cc2o1
23,261 to 263 °C,O=C(O)c1ccc(COCc2csc3nc(C(=O)NCc4cccc(C(F)(F)F)c4)[nH]c(=O)c23)cc1
24,114 °C,O=C(NCCCl)c1c(Cl)cccc1Cl
25,83 to 85 °C,COCCOc1c(C(=O)CC(=O)C(=O)O)ccc(Cc2ccccc2)c1OC
